Source: US9232796B2, “Herbicidal compositions comprising 4-amino-3-chloro-5-fluoro-6-(4-chloro-2-fluoro-3-methoxyphenyl) pyridine-2-carboxylic acid or a derivative thereof and acetyl-CoA carboxylase (ACCase) inhibitors” (DOW AGROSCIENCES LLC, priority 2012, dated 2016)

System: ECHCG
Experiment: Example VI in-water applied ternary mixtures, greenhouse, transplanted paddy rice weeds
Type: in vivo, Echinochloa crus-galli (L.) Beauv.
How it was run: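 Compound A (SC, acid-equivalent basis) alone or with cyhalofop-R-butyl or metamifop plus a third herbicide, injected into paddy water of greenhouse-grown transplanted rice and weeds at 1st–4th leaf stage (~29/26 °C). Visual injury scored 0–100% after ~3 weeks vs untreated; expected mixture effects by Colby's equation.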

COc1c(Cl)ccc(-c2nc(C(=O)OCc3ccccc3)c(Cl)c(N)c2F)c1F [Compound A Benzyl Ester, benzyl ester of 4-amino-3-chloro-5-fluoro-6-(4-chloro-2-fluoro-3-methoxy-phenyl)pyridine-2-carboxylic acid]
Visual Weed Control (%) - 21 DAA ECHCG Obs (1.09 gae/ha, first set): 0% | Visual Weed Control (%) - 21 DAA ECHCG Obs (1.09 gae/ha, first sub-table): 0% | Visual Weed Control (%) - 21 DAA ECHCG Obs (2.19 gae/ha, first set): 7% | Visual Weed Control (%) - 21 DAA ECHCG Obs (2.19 gae/ha, first sub-table): 7% | Visual Weed Control (%) - 21 DAA ECHCG Obs (4 gae/ha): 25% | Visual Weed Control (%) - 21 DAA ECHCG Obs (4 gae/ha, second set): 25% | Visual Weed Control (%) - 21 DAA ECHCG Obs (4 gae/ha, second sub-table): 25% | Visual Weed Control (%) - 21 DAA ECHCG Obs (8 gae/ha): 45% | Visual Weed Control (%) - 21 DAA ECHCG Obs (8 gae/ha, second set): 45% | Visual Weed Control (%) - 21 DAA ECHCG Obs (8 gae/ha, second sub-table): 45% | Visual Weed Control (%) - 21 DAA ECHCG Obs (16 gae/ha): 99% | Visual Weed Control (%) - 21 DAA ECHCG Obs (16 gae/ha, second set): 99% | Visual Weed Control (%) - 21 DAA ECHCG Obs (16 gae/ha, second sub-table): 99% | Visual Weed Control (%) - 21 DAA ECHCG Obs (Table 67, 4 gae/ha, 21 DAA): 25% | Visual Weed Control (%) - 21 DAA ECHCG Obs (Table 68, 4 gae/ha, 21 DAA): 25% | Visual Weed Control (%) - 21 DAA ECHCG Obs (Table 68, 8 gae/ha, 21 DAA): 45% | Visual Weed Control (%) - 21 DAA ECHCG Obs (Table 68, 16 gae/ha, 21 DAA): 99%

CCCCOC(=O)[C@@H](C)Oc1ccc(Oc2ccc(C#N)cc2F)cc1 [Cyhalofop-butyl, butyl(2R)-2-[4-(4-cyano-2-fluorophenoxy)phenoxy]propanoate, reference compound]
Visual Weed Control (%) - 21 DAA ECHCG Obs (22.5 gai/ha, first set): 0% | Visual Weed Control (%) - 21 DAA ECHCG Obs (22.5 gai/ha, first sub-table): 0% | Visual Weed Control (%) - 21 DAA ECHCG Obs (45 gai/ha): 30% | Visual Weed Control (%) - 21 DAA ECHCG Obs (45 gai/ha, first set): 3% | Visual Weed Control (%) - 21 DAA ECHCG Obs (45 gai/ha, first sub-table): 3% | Visual Weed Control (%) - 21 DAA ECHCG Obs (45 gai/ha, second set): 30% | Visual Weed Control (%) - 21 DAA ECHCG Obs (45 gai/ha, second sub-table): 30% | Visual Weed Control (%) - 21 DAA ECHCG Obs (Table 67, 45 gai/ha, 21 DAA): 30% | Visual Weed Control (%) - 21 DAA ECHCG Obs (Table 68, 45 gai/ha, 21 DAA): 30%
